ChEMBL document CHEMBL1201862, “PubChem BioAssay data set” (2004)
Active and inactive are the calls of the source.

Legend:
Vero [1] = assay: cells; assay type: functional, cell-based; conditions: Chlorocebus sabaeus
Vero [2] = assay: cells; assay type: functional; conditions: Chlorocebus sabaeus
CAAX prenyl protease 2 [3] = target: T1, CAAX prenyl protease 2 (Saccharomyces cerevisiae S288c, UniProt Q03530); assay type: biochemical
T1 sequence (Q03530 whole entry): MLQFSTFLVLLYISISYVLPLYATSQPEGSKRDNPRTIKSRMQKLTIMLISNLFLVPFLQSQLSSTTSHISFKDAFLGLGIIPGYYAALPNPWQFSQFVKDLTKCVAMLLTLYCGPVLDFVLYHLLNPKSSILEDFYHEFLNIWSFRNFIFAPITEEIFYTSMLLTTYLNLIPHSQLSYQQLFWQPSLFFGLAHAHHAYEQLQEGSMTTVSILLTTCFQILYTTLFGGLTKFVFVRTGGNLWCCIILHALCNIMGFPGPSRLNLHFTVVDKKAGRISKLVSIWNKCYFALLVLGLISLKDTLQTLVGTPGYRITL

CAAX prenyl protease 2 [4] = target: T2, CAAX prenyl protease 2 (Homo sapiens, UniProt Q9Y256); assay: inhibition of Ras-converting CAAX protease Rce1 – biochemical, yeast membranes, quenched-peptide fluorescence, cherry-pick, dose response (AID 588849)
T2 sequence (Q9Y256 whole entry): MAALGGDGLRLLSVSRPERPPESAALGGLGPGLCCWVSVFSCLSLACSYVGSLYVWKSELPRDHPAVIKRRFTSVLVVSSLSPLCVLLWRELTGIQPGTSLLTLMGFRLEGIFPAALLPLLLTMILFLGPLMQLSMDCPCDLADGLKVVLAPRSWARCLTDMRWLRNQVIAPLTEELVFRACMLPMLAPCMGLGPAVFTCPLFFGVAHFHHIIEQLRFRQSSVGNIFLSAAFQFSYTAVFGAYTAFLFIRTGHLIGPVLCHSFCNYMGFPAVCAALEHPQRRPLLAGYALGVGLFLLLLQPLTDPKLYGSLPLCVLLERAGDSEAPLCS

[5] = decrease of insulin promoter-GFP reporter – imaging, high-content screening, mouse beta cells (AID 1628); assay type: functional; conditions: MIN6
[6] = MIN6 cell viability loss – mouse insulinoma, cytotoxicity control, dose response (AID 2122); assay type: functional;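 further: confirmatory high-throughput counterscreen run to flag cytotoxic compounds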
[7] = reduction of Shn3 3'UTR-driven luciferase in osteoblasts – cell-based, Clone20 osteoblasts, firefly luciferase, cherry-picked, dose response (AID 624132); assay type: functional;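 further: firefly luciferase luminescence from reporter carrying the Shn3 3'UTR in osteoblasts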
[8] = non-specific 3'UTR reporter inhibition in Clone20-Shn3RL – cell-based, Renilla luciferase, cherry-picked, counter-screen for Shn3 inhibitor project, dose response (AID 624133); assay type: functional
Protein Wnt-3a = Protein Wnt-3a (Mus musculus, UniProt P27467); assay: antagonism of Wnt3a pathway luciferase reporter – Wnt-LIGHT cells, luminescence, selectivity assay for Gli-SUFU antagonist project, dose response (AID 651570); assay type: functional; conditions: read-out: IC50_Mean;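 further: Wnt-LIGHT reporter cells stimulated with conditioned medium from Wnt3a-producing cells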
Protein Wnt-3a, sequence (P27467 whole entry): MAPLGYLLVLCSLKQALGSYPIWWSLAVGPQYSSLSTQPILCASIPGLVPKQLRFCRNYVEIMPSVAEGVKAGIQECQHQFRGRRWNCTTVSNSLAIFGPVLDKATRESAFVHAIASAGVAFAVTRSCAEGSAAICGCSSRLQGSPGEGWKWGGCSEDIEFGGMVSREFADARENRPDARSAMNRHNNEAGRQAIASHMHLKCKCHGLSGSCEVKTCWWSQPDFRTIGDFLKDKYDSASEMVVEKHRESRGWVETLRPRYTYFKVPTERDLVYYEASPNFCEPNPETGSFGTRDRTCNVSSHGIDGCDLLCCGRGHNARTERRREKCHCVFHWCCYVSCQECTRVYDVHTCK

[9] = target: Glucose-6-phosphate 1-dehydrogenase (Homo sapiens, UniProt P11413); assay: inhibition of Homo sapiens G6PD, dose series – biochemical, fluorescence, selectivity assay for P. falciparum G6PD inhibitor project, dose response (AID 504792); assay type: functional
Glucose-6-phosphate 1-dehydrogenase, sequence (P11413 whole entry): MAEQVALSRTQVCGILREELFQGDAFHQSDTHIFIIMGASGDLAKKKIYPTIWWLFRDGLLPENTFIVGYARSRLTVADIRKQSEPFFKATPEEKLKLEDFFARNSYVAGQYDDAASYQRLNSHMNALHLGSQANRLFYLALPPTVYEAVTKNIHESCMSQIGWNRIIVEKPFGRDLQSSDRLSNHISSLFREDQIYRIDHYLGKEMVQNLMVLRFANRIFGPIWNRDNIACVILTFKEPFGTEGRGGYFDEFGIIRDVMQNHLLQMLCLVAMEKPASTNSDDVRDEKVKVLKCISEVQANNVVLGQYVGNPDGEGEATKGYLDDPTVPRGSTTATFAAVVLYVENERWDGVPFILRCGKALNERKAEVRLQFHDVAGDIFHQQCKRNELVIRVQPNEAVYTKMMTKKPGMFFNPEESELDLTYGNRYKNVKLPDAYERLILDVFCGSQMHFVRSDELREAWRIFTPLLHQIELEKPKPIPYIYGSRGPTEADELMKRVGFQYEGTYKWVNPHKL

Leucine aminopeptidase = target: T3, Leucine aminopeptidase (Plasmodium falciparum 3D7, UniProt Q8IL11); assay: P. falciparum M17LAP inhibitors, primary screen, biochemical, fluorogenic H-Leu-NHMec substrate, 1536-well (AID 1619); assay type: functional
T3 sequence (Q8IL11 whole entry): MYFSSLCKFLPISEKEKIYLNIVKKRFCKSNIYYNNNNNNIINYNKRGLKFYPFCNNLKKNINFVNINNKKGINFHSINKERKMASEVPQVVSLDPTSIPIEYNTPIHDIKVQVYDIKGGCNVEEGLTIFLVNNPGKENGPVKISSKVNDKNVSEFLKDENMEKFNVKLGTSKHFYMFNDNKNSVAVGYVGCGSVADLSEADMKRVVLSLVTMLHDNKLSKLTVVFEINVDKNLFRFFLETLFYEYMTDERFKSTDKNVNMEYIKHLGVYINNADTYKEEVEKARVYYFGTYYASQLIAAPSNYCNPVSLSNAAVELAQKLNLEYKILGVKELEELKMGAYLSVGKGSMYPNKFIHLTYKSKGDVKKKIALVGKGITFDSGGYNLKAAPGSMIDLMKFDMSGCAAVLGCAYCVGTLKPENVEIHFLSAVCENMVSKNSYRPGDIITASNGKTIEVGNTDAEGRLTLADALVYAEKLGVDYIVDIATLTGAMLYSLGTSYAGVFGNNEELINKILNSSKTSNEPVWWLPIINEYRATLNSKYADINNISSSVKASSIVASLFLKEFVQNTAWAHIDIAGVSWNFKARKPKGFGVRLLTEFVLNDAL

[10] = viability of uninfected HEp-2 cells – cell-based, HTS, cytotoxicity control for RSV inhibitor project, dose response (AID 2410); assay type: functional; conditions: human respiratory syncytial virus
Protein skinhead-1 = target: T4, Protein skinhead-1 (Caenorhabditis elegans, UniProt P34707); assay type: functional
T4 sequence (P34707 whole entry): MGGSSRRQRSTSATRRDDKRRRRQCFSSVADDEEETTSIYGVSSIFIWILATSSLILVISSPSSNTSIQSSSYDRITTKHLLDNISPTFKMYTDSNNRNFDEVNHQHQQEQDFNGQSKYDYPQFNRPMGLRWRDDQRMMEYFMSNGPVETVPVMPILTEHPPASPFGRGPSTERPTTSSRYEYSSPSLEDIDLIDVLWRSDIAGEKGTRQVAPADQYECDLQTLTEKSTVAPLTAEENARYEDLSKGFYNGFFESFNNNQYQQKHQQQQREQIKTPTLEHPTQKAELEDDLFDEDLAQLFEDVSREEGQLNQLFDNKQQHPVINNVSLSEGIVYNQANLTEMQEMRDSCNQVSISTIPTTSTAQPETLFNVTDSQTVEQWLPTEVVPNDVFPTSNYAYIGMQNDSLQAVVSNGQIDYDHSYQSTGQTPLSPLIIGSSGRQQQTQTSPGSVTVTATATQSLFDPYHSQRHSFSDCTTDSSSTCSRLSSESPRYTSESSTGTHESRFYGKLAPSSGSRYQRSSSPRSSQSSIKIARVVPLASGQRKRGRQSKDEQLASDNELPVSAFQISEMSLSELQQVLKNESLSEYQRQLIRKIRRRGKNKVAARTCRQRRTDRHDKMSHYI

[11] = target: Intestinal-type alkaline phosphatase (Mus musculus, UniProt P24822); assay: PubChem AID 488785; assay type: functional
Intestinal-type alkaline phosphatase (Mus musculus, UniProt P24822), sequence (P24822 whole entry): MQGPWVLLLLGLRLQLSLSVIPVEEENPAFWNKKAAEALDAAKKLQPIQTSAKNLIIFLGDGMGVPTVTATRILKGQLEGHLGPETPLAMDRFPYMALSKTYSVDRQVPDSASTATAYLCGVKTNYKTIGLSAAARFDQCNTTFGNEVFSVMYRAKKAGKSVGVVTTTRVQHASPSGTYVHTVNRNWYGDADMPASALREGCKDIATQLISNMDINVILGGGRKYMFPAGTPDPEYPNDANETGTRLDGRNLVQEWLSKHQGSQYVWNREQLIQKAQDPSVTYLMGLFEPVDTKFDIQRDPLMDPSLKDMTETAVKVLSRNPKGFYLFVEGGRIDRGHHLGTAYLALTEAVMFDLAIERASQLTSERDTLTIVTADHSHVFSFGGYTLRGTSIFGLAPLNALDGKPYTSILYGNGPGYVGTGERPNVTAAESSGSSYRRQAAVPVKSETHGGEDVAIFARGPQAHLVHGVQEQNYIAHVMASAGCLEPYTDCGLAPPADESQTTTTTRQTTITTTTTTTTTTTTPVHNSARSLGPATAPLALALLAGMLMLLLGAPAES

[12] = target: FAD-linked sulfhydryl oxidase ALR (Homo sapiens, UniProt P55789); assay: ALR-catalysed DTT oxidation blockers – biochemical, H2O2 detection, luminescence, cherry-pick, dose response (AID 493248)
FAD-linked sulfhydryl oxidase ALR, sequence (P55789 whole entry): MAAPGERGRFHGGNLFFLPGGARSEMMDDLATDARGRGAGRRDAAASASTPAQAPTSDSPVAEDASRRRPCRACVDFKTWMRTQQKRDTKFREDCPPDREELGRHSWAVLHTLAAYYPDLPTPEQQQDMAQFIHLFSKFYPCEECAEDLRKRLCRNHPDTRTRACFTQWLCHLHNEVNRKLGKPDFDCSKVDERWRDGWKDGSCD

[13] = target: T5, Alkaline phosphatase, tissue-nonspecific isozyme (Homo sapiens, UniProt P05186); assay: TNAP enzyme inhibition by screening hits, dose response, selectivity assay for mouse IAP inhibitor project, biochemical, human TNAP, uHTS hits (AID 488906); assay type: functional
T5 sequence (P05186 whole entry): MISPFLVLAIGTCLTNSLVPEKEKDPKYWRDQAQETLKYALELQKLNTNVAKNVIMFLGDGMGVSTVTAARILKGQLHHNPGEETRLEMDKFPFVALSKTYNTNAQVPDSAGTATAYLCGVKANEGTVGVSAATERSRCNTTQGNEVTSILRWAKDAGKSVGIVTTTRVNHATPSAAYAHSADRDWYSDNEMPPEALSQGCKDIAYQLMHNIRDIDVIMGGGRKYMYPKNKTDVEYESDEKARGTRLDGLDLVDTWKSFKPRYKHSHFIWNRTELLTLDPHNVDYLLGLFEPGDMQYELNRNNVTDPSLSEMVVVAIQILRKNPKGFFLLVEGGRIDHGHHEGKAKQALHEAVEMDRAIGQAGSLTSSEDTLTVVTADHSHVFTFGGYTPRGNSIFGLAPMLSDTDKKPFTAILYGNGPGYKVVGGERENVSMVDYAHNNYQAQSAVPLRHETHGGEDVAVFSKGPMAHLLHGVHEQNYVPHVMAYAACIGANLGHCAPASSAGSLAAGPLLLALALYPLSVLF

[14] = target: Intestinal-type alkaline phosphatase (Homo sapiens, UniProt P09923); assay: inhibition of human intestinal alkaline phosphatase – biochemical, dose response (AID 488876); assay type: functional
Intestinal-type alkaline phosphatase (Homo sapiens, UniProt P09923), sequence (P09923 whole entry): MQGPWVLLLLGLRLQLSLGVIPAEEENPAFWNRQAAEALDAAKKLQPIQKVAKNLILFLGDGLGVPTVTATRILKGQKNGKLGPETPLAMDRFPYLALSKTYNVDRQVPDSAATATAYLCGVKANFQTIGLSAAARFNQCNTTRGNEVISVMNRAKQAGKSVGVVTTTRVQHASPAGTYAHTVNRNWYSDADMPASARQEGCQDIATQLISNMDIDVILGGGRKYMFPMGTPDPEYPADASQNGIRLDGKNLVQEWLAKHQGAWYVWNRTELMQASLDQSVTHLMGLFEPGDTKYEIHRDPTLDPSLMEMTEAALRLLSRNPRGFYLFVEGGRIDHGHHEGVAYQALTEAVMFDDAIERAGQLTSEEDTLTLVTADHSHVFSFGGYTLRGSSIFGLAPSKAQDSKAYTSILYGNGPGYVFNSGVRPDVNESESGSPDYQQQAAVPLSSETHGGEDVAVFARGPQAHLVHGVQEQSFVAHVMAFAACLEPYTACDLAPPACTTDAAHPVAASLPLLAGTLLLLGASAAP

[15] = Luminescence Cell-Based Dose Retest to Confirm Inhibitors of Cancer Stem Cells. [Related pubchem assays (depositor defined):AID2717, AID2721]; assay type: functional; conditions: Homo sapiens
cells = assay type: functional

## CN1CCN(CCC=C2c3ccccc3Sc3ccc(S(=O)(=O)N(C)C)cc32)CC1
Vero [1]
  IC50: > 25 µM (active)
Vero [2]
  CC50: 19.7 µM (active)

## COC(=O)c1nc(N)sc1-c1ccc(Cl)c(Cl)c1
CAAX prenyl protease 2 [3]
  AC50: 21.3 µM (active)
CAAX prenyl protease 2 [4]
  AC50: 11.6 µM (active)

## O=C(Cn1cc(C(=O)c2ccco2)c2ccccc21)Nc1ccccc1F
[5]
  IC50: 1.79 µM (active)
[6]
  IC50: 1.33 µM (active)
[7]
  AC50: 2.6 µM (active)
[8]
  AC50: 4.67 µM (active)
Protein Wnt-3a
  IC50: 4.08 µM (active)

## COc1cc(CN2CCN(CCCc3ccccc3)C(CCO)C2)cc(OC)c1O (stereo unspecified)
[9]
  IC50: 58.7 µM (inactive)

## COc1ccc(Nc2nnc(SCC(=O)/C=C3/N(C)c4ccccc4C3(C)C)s2)cc1
Leucine aminopeptidase
  IC50: 21.1 µM (active)
[10]
  CC50: 7.33 µM (active)
[5]
  IC50: 1.64 µM (active)
[6]
  IC50: 1.72 µM (active)
Protein skinhead-1
  IC50: > 100 µM (inactive)

## Cc1cc(O)c(Sc2nc[nH]n2)cc1NS(=O)(=O)c1ccc(Cl)cc1
[11]
  IC50: 5.84 µM (active)
[12]
  AC50: 1.52 µM (active)
[13]
  IC50: 92.6 µM (active)
[14]
  IC50: > 100 µM (inactive)

## Cc1ccc(/C=C2\SC(=S)N(CCC(=O)N3CCOCC3)C2=O)cc1
Vero [1]
  IC50: > 25 µM (active)
Vero [2]
  CC50: 14.5 µM (active)

## O=C(NC1CCCCC1)c1ccc2ccccc2c1O
Vero [1]
  IC50: 11.3 µM (active)

## C#CCOCCOCCOCCNc1nc(N2CCN(C(=O)CCCCCCCCCCNC(=O)Cn3cc(C[C@@H](C)O)nn3)CC2)nc(N2CCN(C(=O)CCCCCCCCCCNC(=O)[C@@H](CCSC)n3cc(CCO)nn3)CC2)n1
[11]
  IC50: 27.6 µM (active)
[13]
  IC50: 27.3 µM (active)
[14]
  IC50: 36.3 µM (active)

## C#CCOCCOCCOCCNc1nc(N2CCN(C(=O)CCCCCCCCCCNC(=O)Cn3cc(C[C@@H](C)O)nn3)CC2)nc(N2CCN(C(=O)CCCCCCCCCCNC(=O)[C@H](CCCCN)n3cc(C[C@@H](C)CC)nn3)CC2)n1
[15]
  AC50: 7.11 µM (active)
[11]
  IC50: 4.71 µM (active)
[13]
  IC50: 95.5 µM (active)
[14]
  IC50: > 100 µM (inactive)

## Cc1nnc(N/N=C/c2ccc(-c3ccccc3F)o2)n1N
[9]
  IC50: > 80 µM (inactive)
cells
  IC50: 22.3 µM (active)
